Tested on: 422866-222-R5-J1-PDC complex spheroid viability
Assay: Anticancer human tumor 422866-222-R5-J1-PDC patient-derived pancreatic adenocarcinoma cell line growth inhibition [POLQ]
Conditions: for IC50: curve of first compound; for viability, T/C: stronger effect = lower value
How it was run: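 PDC + HUVEC + MSC complex spheroids; POLQ inhibitors ± partner drugs; top conc. at/near clinical Cmax, else 10 microM (SN-38 1 microM), half-log dilutions; 37 degrees C, 5% CO2.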

[1] = second compound 0.0316 µM, first compound 0.0316 µM
[2] = second compound 0.0316 µM, first compound 0.1 µM
[3] = second compound 0.0316 µM, first compound 0.316 µM
[4] = second compound 0.0316 µM, first compound 1 µM
[5] = second compound 0.0316 µM, first compound 3.16 µM
[6] = second compound 0.0316 µM, first compound 10 µM
[7] = second compound 0.1 µM, first compound 0.0316 µM
[8] = second compound 0.1 µM, first compound 0.1 µM
[9] = second compound 0.1 µM, first compound 0.316 µM
[10] = second compound 0.1 µM, first compound 1 µM
[11] = second compound 0.1 µM, first compound 3.16 µM
[12] = second compound 0.1 µM, first compound 10 µM
[13] = second compound 0.316 µM, first compound 0.0316 µM
[14] = second compound 0.316 µM, first compound 0.1 µM
[15] = second compound 0.316 µM, first compound 0.316 µM
[16] = second compound 0.316 µM, first compound 1 µM
[17] = second compound 0.316 µM, first compound 3.16 µM
[18] = second compound 0.316 µM, first compound 10 µM
[19] = second compound 1 µM, first compound 0.0316 µM
[20] = second compound 1 µM, first compound 0.1 µM
[21] = second compound 1 µM, first compound 0.316 µM
[22] = second compound 1 µM, first compound 1 µM
[23] = second compound 1 µM, first compound 3.16 µM
[24] = second compound 1 µM, first compound 10 µM
[25] = second compound 3.16 µM, first compound 0.0316 µM
[26] = second compound 3.16 µM, first compound 0.1 µM
[27] = second compound 3.16 µM, first compound 0.316 µM
[28] = second compound 3.16 µM, first compound 1 µM
[29] = second compound 3.16 µM, first compound 3.16 µM
[30] = second compound 3.16 µM, first compound 10 µM
[31] = second compound 10 µM, first compound 0.0316 µM
[32] = second compound 10 µM, first compound 0.1 µM
[33] = second compound 10 µM, first compound 0.316 µM
[34] = second compound 10 µM, first compound 1 µM
[35] = second compound 10 µM, first compound 3.16 µM
[36] = second compound 10 µM, first compound 10 µM
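Further: spheroids exposed to compounds for one week before readout.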
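Wherever viability, T/C is given: percent of DMSO vehicle wells luminescence so 100% = untreated viability.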

Work on `Nc1ccn(C2OC(CO)C(O)C2(F)F)c(=O)n1` (stereo not drawn) + COC1C(OC(N)=O)C(O)C(Oc2ccc3c(O)c(NC(=O)c4ccc(O)c(CC=C(C)C)c4)c(=O)oc3c2C)OC1(C)C yielded an IC50 (second compound 0.0316 µM) of 110 nM, an IC50 (second compound 0.1 µM) of 94 nM and an IC50 (second compound 0.316 µM) of 105 nM. For the same compound, the IC50 (second compound 1 µM) was 74.6 nM, the IC50 (second compound 3.16 µM) was 139 nM and the IC50 (second compound 10 µM) was 67.4 nM. It also gave a viability, T/C [1] of 73.5%, a viability, T/C [2] of 49.9% and a viability, T/C [3] of 40.9%. It also gave a viability, T/C [4] of 33.1%, a viability, T/C [5] of 28% and a viability, T/C [6] of 32%. The viability, T/C [7] was 75.6%, the viability, T/C [8] was 47.7% and the viability, T/C [9] was 40.9%. For the same compound, the viability, T/C [10] was 33.7%, the viability, T/C [11] was 32.6% and the viability, T/C [12] was 36.2%. For the same compound, the viability, T/C [13] was 74%, the viability, T/C [14] was 48.2% and the viability, T/C [15] was 42.5%. For the same compound, the viability, T/C [16] was 36.1%, the viability, T/C [17] was 31.7% and the viability, T/C [18] was 33.4%. For the same compound, the viability, T/C [19] was 67.3%, the viability, T/C [20] was 43.1% and the viability, T/C [21] was 41%. It also gave a viability, T/C [22] of 36.1%, a viability, T/C [23] of 38.4% and a viability, T/C [24] of 34.3%. It also gave a viability, T/C [25] of 61.5%, a viability, T/C [26] of 54.5% and a viability, T/C [27] of 38.8%. The viability, T/C [28] was 37.2%, the viability, T/C [29] was 34.5% and the viability, T/C [30] was 38.6%. For the same compound, the viability, T/C [31] was 62.7%, the viability, T/C [32] was 43.7% and the viability, T/C [33] was 37.5%. It also gave a viability, T/C [34] of 35.7%, a viability, T/C [35] of 39% and a viability, T/C [36] of 35.4%.

Compound `COc1cccc(OCCCN)c1-c1cc(Nc2cnc(C#N)cn2)n[nH]1` + COC1C(OC(N)=O)C(O)C(Oc2ccc3c(O)c(NC(=O)c4ccc(O)c(CC=C(C)C)c4)c(=O)oc3c2C)OC1(C)C has an IC50 (second compound 0.0316 µM) of 4.59 nM, an IC50 (second compound 0.1 µM) of 4.16 nM and an IC50 (second compound 0.316 µM) of under 3.16 nM. For the same compound, the IC50 (second compound 1 µM) was under 3.16 nM, the IC50 (second compound 3.16 µM) was 5.14 nM and the IC50 (second compound 10 µM) was under 3.16 nM. For the same compound, the viability, T/C (second compound 0.0316 µM, first compound 0.00316 µM) was 55.9%, the viability, T/C (second compound 0.0316 µM, first compound 0.01 µM) was 37.4% and the viability, T/C [1] was 33.7%. The viability, T/C [2] was 30.7%, the viability, T/C [3] was 26.7% and the viability, T/C [4] was 34.3%. It also gave a viability, T/C (second compound 0.1 µM, first compound 0.00316 µM) of 53%, a viability, T/C (second compound 0.1 µM, first compound 0.01 µM) of 42.1% and a viability, T/C [7] of 32.3%. The viability, T/C [8] was 29.5%, the viability, T/C [9] was 26.8% and the viability, T/C [10] was 42.6%. For the same compound, the viability, T/C (second compound 0.316 µM, first compound 0.00316 µM) was 48.5%, the viability, T/C (second compound 0.316 µM, first compound 0.01 µM) was 39.9% and the viability, T/C [13] was 28.5%. It also gave a viability, T/C [14] of 37.7%, a viability, T/C [15] of 32.1% and a viability, T/C [16] of 35.1%. It also gave a viability, T/C (second compound 1 µM, first compound 0.00316 µM) of 55.9%, a viability, T/C (second compound 1 µM, first compound 0.01 µM) of 39.3% and a viability, T/C [19] of 32.7%. It also gave a viability, T/C [20] of 37.3%, a viability, T/C [21] of 32.7% and a viability, T/C [22] of 47%. For the same compound, the viability, T/C (second compound 3.16 µM, first compound 0.00316 µM) was 54.7%, the viability, T/C (second compound 3.16 µM, first compound 0.01 µM) was 43% and the viability, T/C [25] was 41.4%. It also gave a viability, T/C [26] of 30.1%, a viability, T/C [27] of 41.2% and a viability, T/C [28] of 32.8%. The viability, T/C (second compound 10 µM, first compound 0.00316 µM) was 54.2%, the viability, T/C (second compound 10 µM, first compound 0.01 µM) was 38.7% and the viability, T/C [31] was 39.1%. For the same compound, the viability, T/C [32] was 38%, the viability, T/C [33] was 30.9% and the viability, T/C [34] was 38.4%.

Work on `O=c1[nH]cc(F)c(=O)[nH]1` + Cc1cccc(N(C)C(=O)C2C(O)CCN2c2nc(C)cc(C(F)(F)F)c2C#N)c1 yielded an IC50 (second compound 0.0316 µM) of over 10000 nM, an IC50 (second compound 0.1 µM) of over 10000 nM and an IC50 (second compound 0.316 µM) of over 10000 nM. The IC50 (second compound 1 µM) was over 10000 nM, the IC50 (second compound 3.16 µM) was over 10000 nM and the IC50 (second compound 10 µM) was over 10000 nM. It also gave a viability, T/C [1] of 117%, a viability, T/C [2] of 98.5% and a viability, T/C [3] of 102%. The viability, T/C [4] was 88.2%, the viability, T/C [5] was 82.1% and the viability, T/C [6] was 74.9%. It also gave a viability, T/C [7] of 111%, a viability, T/C [8] of 92.2% and a viability, T/C [9] of 92.3%. For the same compound, the viability, T/C [10] was 90.8%, the viability, T/C [11] was 66.9% and the viability, T/C [12] was 74.3%. The viability, T/C [13] was 118%, the viability, T/C [14] was 109% and the viability, T/C [15] was 99.9%. For the same compound, the viability, T/C [16] was 84.3%, the viability, T/C [17] was 81.1% and the viability, T/C [18] was 78.2%. The viability, T/C [19] was 111%, the viability, T/C [20] was 96.6% and the viability, T/C [21] was 97.9%. For the same compound, the viability, T/C [22] was 101%, the viability, T/C [23] was 84.8% and the viability, T/C [24] was 83.2%. The viability, T/C [25] was 107%, the viability, T/C [26] was 98.6% and the viability, T/C [27] was 86.3%. It also gave a viability, T/C [28] of 83%, a viability, T/C [29] of 83.8% and a viability, T/C [30] of 87.6%. It also gave a viability, T/C [31] of 90.6%, a viability, T/C [32] of 88.8% and a viability, T/C [33] of 99.7%. For the same compound, the viability, T/C [34] was 80.6%, the viability, T/C [35] was 86.7% and the viability, T/C [36] was 67.8%.

Work on `CC1COCCN1c1cc(C2(S(C)(=N)=O)CC2)nc(-c2ccnc3[nH]ccc23)n1` (stereo not drawn) + Cc1cccc(N(C)C(=O)C2C(O)CCN2c2nc(C)cc(C(F)(F)F)c2C#N)c1 yielded an IC50 (second compound 0.0316 µM) of over 10000 nM, an IC50 (second compound 0.1 µM) of 2930 nM and an IC50 (second compound 0.316 µM) of 3360 nM. It also gave an IC50 (second compound 1 µM) of 4210 nM, an IC50 (second compound 3.16 µM) of 5460 nM and an IC50 (second compound 10 µM) of 4410 nM. The viability, T/C [1] was 92.5%, the viability, T/C [2] was 93.2% and the viability, T/C [3] was 98.9%. It also gave a viability, T/C [4] of 70.1%, a viability, T/C [5] of 50.9% and a viability, T/C [6] of 50.5%. The viability, T/C [7] was 101%, the viability, T/C [8] was 121% and the viability, T/C [9] was 98.9%. It also gave a viability, T/C [10] of 74.4%, a viability, T/C [11] of 45.8% and a viability, T/C [12] of 46.3%. For the same compound, the viability, T/C [13] was 110%, the viability, T/C [14] was 110% and the viability, T/C [15] was 90.3%. For the same compound, the viability, T/C [16] was 83.2%, the viability, T/C [17] was 47.1% and the viability, T/C [18] was 33.8%. The viability, T/C [19] was 108%, the viability, T/C [20] was 97.6% and the viability, T/C [21] was 91.5%. For the same compound, the viability, T/C [22] was 76.8%, the viability, T/C [23] was 47.5% and the viability, T/C [24] was 45.8%. The viability, T/C [25] was 103%, the viability, T/C [26] was 103% and the viability, T/C [27] was 90.6%. It also gave a viability, T/C [28] of 73.8%, a viability, T/C [29] of 60.4% and a viability, T/C [30] of 40.3%. The viability, T/C [31] was 100%, the viability, T/C [32] was 82% and the viability, T/C [33] was 93.1%. The viability, T/C [34] was 59.2%, the viability, T/C [35] was 59.5% and the viability, T/C [36] was 37.4%.
